Test results taken from PubChem BioAssay AID651579 (Sanford-Burnham Center for Chemical Genomics, 2012).
The source made the active and inactive calls. The rule behind the calls is not given here.

System: C. elegans hsp-16.2 reporter, heat-shock counterscreen
Test: heat-shock hsp-16.2 reporter inhibition in worms, dose response, counter-screen for SKN-1 inhibitor project, whole organism, C. elegans (AID 651579)

SMILES	IC50
c1ccc2sc(SCc3ccc(-c4nnco4)cc3)nc2c1	> 64 µM (inactive)
Cc1c(N2C(=O)/C(=C\c3ccc(N(C)C)cc3)N(C)C2=S)c(=O)n(-c2ccccc2)n1C	> 64 µM (inactive)
CSc1cccc(NC(=O)c2cccc3cccnc23)c1	46.3 µM
CN1CCN(c2ccc(NC(=O)c3ccc(Oc4ccccc4)cc3)cc2)CC1	> 64 µM (inactive)
COc1cc(CNC2CCCC2)cc(Cl)c1OCc1ccc(F)cc1	42.7 µM
Fc1ccc(Cn2nnc(-c3ccc(CN4CCOCC4)cc3)n2)cc1	4.88 µM
C(=C\c1nnc(-c2cccs2)o1)/c1ccccc1	> 64 µM (inactive)
Clc1ccc(OCCCc2nc(-c3ccncc3)no2)c(Cl)c1	> 64 µM (inactive)
Cn1c(=O)c2c(-c3ccccc3)n(-c3ccc(N)cc3)cc2n(C)c1=O	3.62 µM
Fc1ccc(-n2nnc(-c3cccnc3Cl)n2)cc1	> 64 µM (inactive)
c1ccc(Nc2nc(-c3cccs3)cs2)nc1	> 64 µM (inactive)
O=C(c1cccs1)c1ccc(-c2cccs2)s1	> 64 µM (inactive)
CCc1nc2c(OCc3ccc(C(F)(F)F)cc3)cccn2c1N(C)C(=O)c1ccncc1	49.9 µM
O=C(/C=C/Nc1ccc(Br)cc1F)c1ccco1	> 64 µM (inactive)
CCOc1ccc(-c2nc(-c3cccnc3)no2)cc1	> 64 µM (inactive)
O=C(Nc1nc(-c2ccc(Cl)s2)cs1)c1ccco1	> 64 µM (inactive)
C=CCSc1ncc(-c2ccccc2)cn1	> 64 µM (inactive)
CCc1ccc(C(=O)Nc2ccc3nc(C)ccc3c2)cc1	> 64 µM (inactive)
Clc1ccc(C#Cc2cccnc2)cc1	2.57 µM
O=C(CC(O)(C(F)(F)F)C(F)(F)F)Nc1ccc(Cl)c(Cl)c1	> 64 µM (inactive)
Brc1ccc2nc(N3CCCC3)sc2c1	> 64 µM (inactive)
CCCn1nc2cc(C(=O)NCc3ccc(OC(F)(F)F)cc3)ccc2c1OCC	> 64 µM (inactive)
Brc1ccc2oc(-c3ccn[nH]3)cc2c1	> 64 µM (inactive)
O=C(/C=C/Nc1ccc(F)c(F)c1)c1cccs1	> 64 µM (inactive)
O=C(Nc1nc(-c2ccc(Cl)s2)cs1)c1ccccc1	22.6 µM
CCOc1cc(CNCCSc2nnnn2C)cc(Br)c1OCc1ccc(F)cc1	> 64 µM (inactive)

SMILES	IC50
Cc1ccc2nc(-c3ccc(NC(=S)NC4CC(C)(C)NC(C)(C)C4)cc3)sc2c1	> 64 µM (inactive)
Cc1ccccc1-c1noc(-c2cccs2)n1	> 64 µM (inactive)
O=c1cc(-c2ccc(F)cc2)oc2ccccc12	> 64 µM (inactive)
Cc1ccc(CSc2nnc(-c3ccco3)o2)cc1	30.6 µM
O=[N+]([O-])c1ccc(NCc2ccc(Cl)cc2)nc1	> 64 µM (inactive)
Clc1ccsc1-c1ccc2ccccc2n1	> 64 µM (inactive)
c1ccc(-c2csc(-c3ccncc3)n2)cc1	> 64 µM (inactive)
c1ccc(-c2ccc(-n3ccnc3)cc2)cc1	48.4 µM
c1ccc(-c2nc3cc4ccccc4cc3[nH]2)nc1	5.91 µM
Brc1ccc(-c2nnc(-c3ccco3)o2)cc1	> 64 µM (inactive)
Cc1nc2ccccc2cc1OCc1ccc(F)cc1	> 64 µM (inactive)
CC(C)c1ccc(C(=O)Nc2ccc(CN3CCOCC3)cc2)cc1	> 64 µM (inactive)
O=C(Nc1nccs1)c1ccc2ccccc2c1	> 64 µM (inactive)
CCc1ccc(-c2nc(-c3ccncc3)no2)cc1	33.5 µM
O=C(/C=C/c1cccs1)c1ccc(Br)cc1	> 64 µM (inactive)
CCCCOc1ccc(C(=O)OC2CC(C)N(C)CC2C)cc1 (centres undefined)	> 64 µM (inactive)
N=C1C=CC(=C(c2ccc(N)cc2)c2ccc(N)cc2)C=C1	> 64 µM (inactive)
O=C(C=Cc1cccs1)c1ccc(Cl)s1	> 64 µM (inactive)
Fc1ccc(-c2cnc(-c3cccs3)o2)cc1	> 64 µM (inactive)
CCOc1cc(CNC2CCCC2)cc(Cl)c1OCc1ccc(F)cc1	> 64 µM (inactive)
CC/C(=C\c1ccc(Cl)cc1)c1ccncc1	> 64 µM (inactive)
O=[N+]([O-])c1ccc(OCc2cnc(Cl)s2)cc1	42.3 µM
Clc1ccc2nc(-c3ccc(Br)s3)cn2c1	15.9 µM
O=C(Nc1ccc(SC(F)F)cc1)c1ccccc1F	> 64 µM (inactive)
CN(C)C(CNC(=O)CCc1nc2cc(Cl)ccc2n(Cc2ccccc2)c1=O)c1ccccc1 (centres undefined)	> 64 µM (inactive)
Clc1ccc(-c2nnc(-c3ccccc3)o2)c(Cl)c1	> 64 µM (inactive)

SMILES	IC50
CCOc1cc(CNC2CCCC2)cc(Cl)c1OCc1ccccc1	> 64 µM (inactive)
CC(C)(C)N=C1NN=C(c2ccc(Cl)cc2)CS1	> 64 µM (inactive)
O=C(Nc1nccs1)c1ccc2ccccc2n1	> 64 µM (inactive)
FCCCOc1ccc(-c2nccc(-c3ccccn3)n2)cc1	> 64 µM (inactive)
O=C(Nc1nc2c(ccc3ccccc32)s1)c1ccco1	> 64 µM (inactive)
Clc1ccccc1-c1nnc(-c2ccccc2Cl)o1	> 64 µM (inactive)
COc1ccc(C(=O)Nc2nc(-c3cccs3)cs2)cc1	> 64 µM (inactive)
CSc1ccc(-c2cc(=O)c3ccccc3o2)cc1	> 64 µM (inactive)
Clc1ccc(Cn2nnc(-c3ccccc3)n2)cc1	> 64 µM (inactive)
O=[N+]([O-])c1ccc(COc2ccc(CN3CCCC3)cc2)cc1	> 64 µM (inactive)
O=C(/C=C/c1ccc(Br)cc1)c1ccc(NC2=NCCCS2)cc1	> 64 µM (inactive)
COc1ccc2c(c1)OC/C(=C/c1cccs1)C2=O	> 64 µM (inactive)
Clc1ccccc1-c1nc(-c2ccncc2)no1	> 64 µM (inactive)
CCOC(=O)c1c(-c2ccc(-c3ccccc3)cc2)csc1NC(=O)CNCCN(C)C	> 64 µM (inactive)
O=C(Nc1ccc(OC(F)F)c(Cl)c1)c1ccccn1	> 64 µM (inactive)
O=[N+]([O-])c1ccc2cn(-c3ccccc3)nc2c1	> 64 µM (inactive)
Clc1ccc(OCc2cnc(Cl)s2)cc1	> 64 µM (inactive)
C(=C\c1nc(-c2ccncc2)no1)/c1ccccc1	> 64 µM (inactive)
O=C(/C=C/Nc1ccccc1F)c1cccs1	> 64 µM (inactive)
Cc1ccc(Nc2nc(-c3cccs3)cs2)nc1	13.6 µM
Brc1ccc(CSc2nnc(-c3cccnc3)o2)cc1	45.4 µM
Clc1ccc(-c2nnc(-c3ccco3)o2)cc1	2.68 µM
CCN(CC)c1ccc(/C=C2\C(=O)c3ccc(C(=O)O)cc3C2=O)cc1	> 64 µM (inactive)
O=[N+]([O-])c1ccc2nc(-c3ccccc3)oc2c1	> 64 µM (inactive)
CN(C)CC(O)c1ccc(C=Cc2ccc(Cl)cc2)cc1 (centres undefined)	> 64 µM (inactive)
Fc1ccc(-c2csc(Nc3ccccn3)n2)cc1	> 64 µM (inactive)

SMILES	IC50
Cc1ccc(-c2noc(-c3cccs3)n2)cc1	> 64 µM (inactive)
CCOC(=O)Nc1nc(-c2ccc(F)cc2F)cs1	47.7 µM
Brc1ccc(CSc2nnc(-c3ccco3)o2)cc1	> 64 µM (inactive)
Cc1oc(-c2ccc(-c3ccccc3)cc2)nc1CN(C)C1CCOC1 (centres undefined)	> 64 µM (inactive)
Cc1ccc(N=C/C(C(=O)C(F)(F)F)=C(\O)c2ccco2)cc1Cl	37.7 µM
COc1cc(CNC(C)(C)CO)cc(Br)c1OCc1ccc(Cl)cc1	> 64 µM (inactive)
c1ccc(-c2csc(Nc3ccccn3)n2)cc1	> 64 µM (inactive)
O=C(C=Cc1ccccc1)CC(c1ccccc1)N1CCOCC1 (centres undefined)	> 64 µM (inactive)
CCN(CC)c1ccc(/C=C2/C(=O)c3ccc(C(=O)O)cc3C2=O)cc1	> 64 µM (inactive)
O=C(Nc1nc(-c2ccc(Cl)s2)cs1)c1cccs1	> 64 µM (inactive)
O=C(N=C1N=C2C=CC(Br)=CN2Cc2ccccc21)c1ccc([N+](=O)[O-])cc1[N+](=O)[O-]	> 64 µM (inactive)
CC1=NN(c2ccccc2)C(=O)/C1=C\C=C1/N(C)c2ccccc2C1(C)C	> 64 µM (inactive)
O=C(Nc1ccc(CN2CCOCC2)cc1)c1cc2ccccc2o1	4.25 µM
Fc1ccc(CSc2ncnc3ccccc23)cc1	> 64 µM (inactive)
Clc1ccc(C=Cc2ccccn2)cc1	> 64 µM (inactive)
O=C(Nc1ccc(Cl)cn1)c1ccccc1F	> 64 µM (inactive)
O=C(/C=C/Nc1ccc(F)cc1F)c1cccs1	21.4 µM
O=C(NCc1ccncc1)c1ccc(-c2ccc(F)c(F)c2)c2ccoc12	> 64 µM (inactive)
Fc1ccc(COc2ccc(-c3nnco3)cc2)cc1	> 64 µM (inactive)
Brc1ccc(-c2nc(-c3ccccc3)no2)o1	> 64 µM (inactive)
Fc1ccc(COc2ccc(-c3nnco3)cc2)c(Cl)c1	> 64 µM (inactive)
COc1cc(CNC(C)c2ccccc2)cc(Br)c1OCc1ccc(F)cc1 (centres undefined)	> 64 µM (inactive)
Clc1ccc(C=Cc2ccccn2)c(Cl)c1	22.9 µM
O=C(/C=C/c1ccc(Cl)cc1)Nc1ccc(CN2CCOCC2)cc1	> 64 µM (inactive)
Fc1ccc(-c2csc(-c3ccncc3)n2)cc1	> 64 µM (inactive)
CCN(CC)Cc1ccc(NC(=O)c2sc3cc(Cl)ccc3c2Cl)cc1	> 64 µM (inactive)
